Data as given in patent US8008345B2, “Dermal therapy using phosphate derivatives of electron transfer agents” (Vital Health Sciences Pty. Ltd., priority 2001, dated 2011).
Counter-ions that a name gives are not always drawn.

How the values were obtained:
insect bite = test: Case: insect bite with blistering and inflammation (Example 9); type: in vivo, human; conditions: oral anti-histamine plus topical corticosteroid cream together, first day
From the text: In this example, a method of the invention is used to treat erythema and inflammation symptoms associated with an insect bite.

photodamaged skin (face) = test: Eight-week pilot study on photodamaged skin: clinical grading of efficacy (aging) parameters; type: in vivo, human; conditions: pilot study outcome, stated for the active
Procedure: An eight-week double blind vehicle controlled pilot study was conducted to evaluate the effects of a topical treatment comprising tocopheryl phosphate complexes on improving the appearance of photodamaged skin. Ten female subjects completed the pilot study.
At Visit 1 (screening), prospective subjects completed a health and eligibility questionnaire, and signed a photography release form and an informed consent agreement. Subjects were examined for study eligibility criteria according to the following classifications: […]
Qualified subjects returned to the clinic for Visit 2 (baseline). Subjects participated in the following clinical grading and instrumentation procedures: • Objective irritation (erythema, edema, scaling/skin dryness, rash) and subjective irritation (burning, itching, stinging, tingling, tightness) were assessed globally on the face. Results were recorded using the following scale: 0=none, 1=mild, 2=moderate, and 3=severe. • The following efficacy (aging) parameters were graded at the specified locations using a analog scale (extremes of the scale are listed in parentheses). […]
Mean scores for clinical grading parameters and pinch recoil measurements at Week 4 and Week 8 were statistically compared to baseline using a paired t-test at the p≦0.05 significance level. Mean percent change from baseline was calculated for all attributes. […]

facial skin = test system: facial skin; set-up: species or system human; conditions: in vivo
Procedure: Qualified subjects returned to the clinic for Visit 2 (baseline). Subjects participated in the following clinical grading and instrumentation procedures: • Objective irritation (erythema, edema, scaling/skin dryness, rash) and subjective irritation (burning, itching, stinging, tingling, tightness) were assessed globally on the face. Results were recorded using the following scale: 0=none, 1=mild, 2=moderate, and 3=severe. • The following efficacy (aging) parameters were graded at the specified locations using a analog scale (extremes of the scale are listed in parentheses).
Subjects were assigned to use test material Product A (cream from Example 4) or Product B (Vehicle control: emulsion system) according to a predetermined randomization. […]
Mean scores for clinical grading parameters and pinch recoil measurements at Week 4 and Week 8 were statistically compared to baseline using a paired t-test at the p≦0.05 significance level. Mean percent change from baseline was calculated for all attributes. […] For self-assessment questionnaire responses at Week 4 and Week 8, mean response values and standard deviations were calculated for each question.
Irritation parameters were graded according to a four-point scale where 0=None, 1=Mild, 2=Moderate, and 3=Severe. Efficacy parameters were assessed according to an analog scale where 0 represents positive scores and 10 represents negative scores.

Compound	improvement of bite (insect bite)	appearance of fine lines, wrinkles and skin elasticity in photodamaged skin (photodamaged skin (face))	objective or subjective skin irritation responses in users (facial skin)
CC(C)(C(=O)O)c1ccc(C(O)CCCN2CCC(C(O)(c3ccccc3)c3ccccc3)CC2)cc1 (stereo not drawn) [fexofenadine hydrochloride]	little improvement		
Lauryliminodipropionic Acid Tocopheryl Phosphate		improved the appearance of fine lines, wrinkles and skin elasticity	did not produce objective or subjective skin irritation responses
